Patent US20250340574A1, “MODULATORS OF CYSTIC FIBROSIS TRANSMEMBRANE CONDUCTANCE REGULATOR” (Vertex Pharmaceuticals Incorporated, priority 2022, published 2025)

Target: T1, CFTR (F508del/MF-HBE cells) (Homo sapiens, UniProt P13569, DEL508-508)
T1 construct: human bronchial epithelial (HBE) cells derived from CF subjects heterozygous for F508del and a minimal function CFTR mutation (F508del/MF-HBE); endogenous in cells; host or cells: Primary human bronchial epithelial cells from CF subjects (F508del/MF genotype), differentiated at an air-liquid interface
Experiment: Ussing chamber assay of CFTR-mediated short-circuit currents, Assay D (single concentration of 1 μM)
Type: cell-based
Settings: with 44 nM potentiator and 18 μM Tezacaftor, 20% human serum; for D activity at 1 μM (%): 18-24 hours
Procedure: Ussing chamber experiments were performed using human bronchial epithelial (HBE) cells derived from CF subjects heterozygous for F508del and a minimal function CFTR mutation (F508del/MF-HBE) and cultured as previously described (Neuberger T, Burton B, Clark H, Van Goor F Methods Mol Biol 2011:741:39-54). After four days the apical media was removed, and the cells were grown at an air liquid interface for >14 days prior to use.
To isolate the CFTR-mediated short-circuit (ISC) current, F508del/MF-HBE grown on Costar® Snapwell™ cell culture inserts were mounted in an Ussing chamber and the transepithelial ISC was measured under voltage-clamp recording conditions (Vhold=0 mV) at 37° C. The basolateral solution contained (in mM) 145 NaCl, 0.83 K2HPO4, 3.3 KH2PO4, 1.2 MgCl2, 1.2 CaCl2, 10 Glucose, 10 HEPES (pH adjusted to 7.4 with NaOH) and the apical solution contained (in mM) 145 NaGluconate, 1.2 MgCl2, 1.2 CaCl2, 10 glucose, 10 HEPES (pH adjusted to 7.4 with NaOH) and 30 μM amiloride to block the epithelial sodium channel. Forskolin (20 μM) was added to the apical surface to activate CFTR, followed by apical addition of a CFTR inhibitor cocktail consisting of BPO, GlyH-101, and CFTR inhibitor 172 (each at 20 μM final assay concentration) to specifically isolate CFTR currents. The CFTR-mediated ISC (μA/cm^2) for each condition was determined from the peak forskolin response to the steady-state current following inhibition.
The activity of the CFTR corrector compounds on the CFTR-mediated ISC was determined in Ussing chamber studies as described above. The F508del/MF-HBE cell cultures were either incubated with the corrector compounds at a range of concentrations in combination with 33 nM (6R,12R)-17-amino-12-methyl-6,15-bis(trifluoromethyl)-13,19-dioxa-3,4,18-triazatricyclo[12.3.1.12,5]nonadeca-1(18),2,4,14,16-pentaen-6-ol and 18 μM Tezacaftor or were incubated with the corrector compounds at a single fixed concentration of 1 μM in combination with 44 nM (6R,12R)-17-amino-12-methyl-6,15-bis(trifluoromethyl)-13,19-dioxa-3,4,18-triazatricyclo[12.3.1.12,5]nonadeca-1(18),2,4,14,16-pentaen-6-ol and 18 μM Tezacaftor for 18-24 hours at 37° C. and in the presence of 20% human serum. The concentration of corrector compounds with 44 nM or 33 nM (6R,12R)-17-amino-12-methyl-6,15-bis(trifluoromethyl)-13,19-dioxa-3,4,18-triazatricyclo[12.3.1.12,5]nonadeca-1(18),2,4,14,16-pentaen-6-ol and 18 μM Tezacaftor during the 18-24 hours incubations was kept constant throughout the Ussing chamber measurement of the CFTR-mediated ISC to ensure compounds were present throughout the entire experiment. The efficacy and potency of the putative F508del correctors was compared to that of the known Vertex corrector, (14S)-8-[3-(2-{Dispiro[2.0.2.1]heptan-7-yl}ethoxy)-1H-pyrazol-1-yl]-12,12-dimethyl-2λ^6-thia-3,9,11,18,23-pentaazatetracyclo[17.3.1.111,14.05,10]tetracosa-1(22),5,7,9,19(23),20-hexaene-2,2,4-trione, in combination with 18 μM Tezacaftor and 1 μM Ivacaftor.
• Assay A: 0.1 μM to 25 μM, 6 concentrations • Assay B: 0.00001 μM to 25 μM, 12 concentrations • Assay C: 0.026 μM to 25 μM, 6 concentrations • Assay D: Activity at single concentration of 1 μM

T1 sequence (P13569 with tags, fused parts or gaps DEL508-508): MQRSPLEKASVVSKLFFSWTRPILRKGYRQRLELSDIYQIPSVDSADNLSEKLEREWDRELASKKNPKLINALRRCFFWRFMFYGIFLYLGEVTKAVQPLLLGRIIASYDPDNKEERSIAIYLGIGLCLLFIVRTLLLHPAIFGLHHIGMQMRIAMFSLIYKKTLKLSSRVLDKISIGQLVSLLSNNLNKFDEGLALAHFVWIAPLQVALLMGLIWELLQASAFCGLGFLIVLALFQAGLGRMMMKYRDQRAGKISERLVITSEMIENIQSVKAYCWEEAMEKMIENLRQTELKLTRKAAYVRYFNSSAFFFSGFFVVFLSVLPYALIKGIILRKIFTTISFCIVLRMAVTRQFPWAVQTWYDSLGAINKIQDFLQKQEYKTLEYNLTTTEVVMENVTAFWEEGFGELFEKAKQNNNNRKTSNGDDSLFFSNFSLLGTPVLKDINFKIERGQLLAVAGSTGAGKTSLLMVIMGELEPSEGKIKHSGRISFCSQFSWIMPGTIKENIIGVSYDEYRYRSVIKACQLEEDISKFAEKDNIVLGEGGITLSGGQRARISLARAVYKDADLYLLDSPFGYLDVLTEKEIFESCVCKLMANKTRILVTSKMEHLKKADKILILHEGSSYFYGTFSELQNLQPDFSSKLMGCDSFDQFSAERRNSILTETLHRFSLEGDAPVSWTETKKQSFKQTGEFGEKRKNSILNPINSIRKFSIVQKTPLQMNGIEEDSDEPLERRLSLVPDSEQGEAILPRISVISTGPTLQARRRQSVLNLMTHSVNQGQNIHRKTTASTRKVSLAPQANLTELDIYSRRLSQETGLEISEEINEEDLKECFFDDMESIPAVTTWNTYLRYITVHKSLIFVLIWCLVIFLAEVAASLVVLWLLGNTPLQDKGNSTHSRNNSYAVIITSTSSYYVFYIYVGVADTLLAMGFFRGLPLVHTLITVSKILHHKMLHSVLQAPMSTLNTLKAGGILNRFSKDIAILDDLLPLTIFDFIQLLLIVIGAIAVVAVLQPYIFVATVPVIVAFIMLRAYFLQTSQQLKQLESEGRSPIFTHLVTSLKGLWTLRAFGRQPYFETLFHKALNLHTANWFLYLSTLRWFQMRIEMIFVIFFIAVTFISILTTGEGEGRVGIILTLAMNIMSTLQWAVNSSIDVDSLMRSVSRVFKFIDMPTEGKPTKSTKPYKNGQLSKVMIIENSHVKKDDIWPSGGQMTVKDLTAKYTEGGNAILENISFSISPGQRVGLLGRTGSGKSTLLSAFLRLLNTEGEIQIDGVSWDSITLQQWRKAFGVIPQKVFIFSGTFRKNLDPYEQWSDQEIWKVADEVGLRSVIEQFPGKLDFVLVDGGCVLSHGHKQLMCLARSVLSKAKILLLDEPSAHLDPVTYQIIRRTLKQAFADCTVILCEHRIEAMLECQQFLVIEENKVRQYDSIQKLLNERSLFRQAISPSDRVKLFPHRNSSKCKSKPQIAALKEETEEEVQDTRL

| D activity at 1 μM (%) | D act. at 1 μM (%) | Compound |
| --- | --- | --- |
| +++ (+++ is >60%) |  | Cc1cccc(C)c1-c1cc2nc(n1)NS(=O)(=O)c1cccc(c1)C(=O)N(Cc1cnc3oc(C4CC4)cc3n1)[C@@H](CC1CC(C)(C)C1)CO2 (single isomer, unassigned) [Compound I-165, 12-[(6-Cyclopropylfuro[2,3-b]pyrazin-2-yl)methyl]-11-[(3,3-dimethylcyclobutyl)methyl]-6-(2,6-dimethylphenyl)-2,2-dioxo-9-oxa-2λ^6-thia-3,5,12,19-tetrazatricyclo[12.3.1.14,8]nonadeca-1(18),4(19),5,7,14,16-hexaen-13-one] |
| ++ (++ is 30-60%) |  | Cc1cccc(C)c1-c1cc2nc(n1)NS(=O)(=O)c1cccc(c1)C(=O)N(Cc1cnc3oc(C4CC4)cc3n1)[C@@H](CC1CC(C)(C)C1)CO2 (single isomer, unassigned) [Compound I-166, 12-[(6-cyclopropylfuro[2,3-b]pyrazin-2-yl)methyl]-11-[(3,3-dimethylcyclobutyl)methyl]-6-(2,6-dimethylphenyl)-2,2-dioxo-9-oxa-2λ^6-thia-3,5,12,19-tetrazatricyclo[12.3.1.14,8]nonadeca-1(18),4(19),5,7,14,16-hexaen-13-one] |
|  | +++ (+++ is >60%) | Cc1cccc(C)c1-c1cc2nc(n1)NS(=O)(=O)c1cccc(c1)C(=O)N(Cc1cnc3oc([C@](C)(O)CO)cc3n1)[C@H](CC1(C)CC1)CO2 (single isomer, unassigned) [IV-14] |
|  | +++ (+++ is >60%) | Cc1cccc(C)c1-c1cc2nc(n1)NS(=O)(=O)c1cccc(c1)C(=O)N(Cc1cnc3oc([C@](C)(O)CO)cc3n1)[C@H](CC1(C)CC1)CO2 (single isomer, unassigned) [IV-15] |
|  | ++ (++ is 30-60%) | Cc1cccc(C)c1-c1cc2nc(n1)NS(=O)(=O)c1cccc(c1)C(=O)N(Cc1cnc3cc(C4(C)CC4)n(C)c3n1)[C@@H](C(C1CCC1)C1CCC1)CO2 (single isomer, unassigned) [IV-21, 11-[di(cyclobutyl)methyl]-6-(2,6-dimethylphenyl)-12-[[5-methyl-6-(1-methylcyclopropyl)pyrrolo[2,3-b]pyrazin-3-yl]methyl]-2,2-dioxo-9-oxa-2λ^6-thia-3,5,12,19-tetrazatricyclo[12.3.1.14,8]nonadeca-1(18),4(19),5,7,14,16-hexaen-13-one] |
| +++ (+++ is >60%) |  | Cc1cccc(C)c1-c1cc2nc(n1)NS(=O)(=O)c1cccc(c1)C(=O)N(Cc1cnc3oc(C(C)C)c(C(F)(F)F)c3n1)[C@H](CCC1(C)CC1)CO2 (stereo in doubt) [Compound I-127] |
| +++ (+++ is >60%) |  | Cc1cccc(C)c1-c1cc2nc(n1)NS(=O)(=O)c1cccc(c1)C(=O)N(Cc1cnc3c(n1)CN(C(C)C)C3=O)[C@@H](CCC1(C)CC1)CO2 (stereo in doubt) [III-19] |
| +++ (+++ is >60%) |  | Cc1cccc(C)c1-c1cc2nc(n1)NS(=O)(=O)c1cccc(c1)C(=O)N(Cc1cnc3c(n1)C(=O)N(C(C)C)C3)[C@@H](CCC1(C)CC1)CO2 (stereo in doubt) [III-22] |
| +++ (+++ is >60%) |  | Cc1cccc(C)c1-c1cc2nc(n1)NS(=O)(=O)c1cccc(c1)C(=O)N(Cc1cnc3c(n1)C(=O)N(C(C)C)[C@@H]3C)[C@H](CC(C)(C)C)CO2 (stereo in doubt) [III-23] |
| +++ (+++ is >60%) |  | Cc1cccc(C)c1-c1cc2nc(n1)NS(=O)(=O)c1cccc(c1)C(=O)N(Cc1cnc3oc(C(C)C)c(C#N)c3n1)[C@H](CC(C)(C)C)CO2 [Compound I-74] |
| +++ (+++ is >60%) |  | COC1(C[C@@H]2COc3cc(-c4c(C)cccc4C)nc(n3)NS(=O)(=O)c3cccc(c3)C(=O)N2Cc2cnc3oc(C(C)C)cc3n2)CCC1 [Compound I-76] |
| +++ (+++ is >60%) |  | Cc1cccc(C)c1-c1cc2nc(n1)NS(=O)(=O)c1cccc(c1)C(=O)N(Cc1nc3cc(C(C)C)oc3cc1F)[C@H](COC(C)C)CO2 [Compound I-77] |
| +++ (+++ is >60%) |  | Cc1cccc(C)c1-c1cc2nc(n1)NS(=O)(=O)c1cccc(c1)C(=O)N(Cc1nc3c(cc1F)nc(C(C)C)n3C)[C@H](CC1(C)CC1)CO2 [Compound I-79] |
| +++ (+++ is >60%) |  | Cc1cccc(C)c1-c1cc2nc(n1)NS(=O)(=O)c1cccc(c1)C(=O)N(Cc1cnc3oc(C(C)C)cc3n1)C(CC(C)(C)C1CC1)CO2 (stereo not drawn) [Compound I-105] |
| +++ (+++ is >60%) |  | Cc1cccc(C)c1-c1cc2nc(n1)NS(=O)(=O)c1cccc(c1)C(=O)N(Cc1cnc3cc(C(C)C)n(C)c3n1)C(CC(C)(C)C1CC1)CO2 (stereo not drawn) [Compound I-108] |

The remaining lines, values behind:

| Compound | D activity at 1 μM (%) | D act. at 1 μM (%) |
| --- | --- | --- |
| CCC(C)(C)C[C@H]1COc2cc(-c3c(C)cccc3C)nc(n2)NS(=O)(=O)c2cccc(c2)C(=O)N1Cc1cnc2oc(C(C)C)cc2n1 (stereo in doubt) [Compound I-39] | ++ (++ is 30-60%) |  |
| Cc1cccc(C)c1-c1cc2nc(n1)NS(=O)(=O)c1cccc(c1)C(=O)N(Cc1cnc3oc(C4CC4)cc3n1)[C@H](C[C@@H]1CCCO1)CO2 (stereo in doubt) [Compound I-45] | +++ (+++ is >60%) |  |
| Cc1cccc(C)c1-c1cc2nc(n1)NS(=O)(=O)c1cccc(c1)C(=O)N(Cc1cnc3oc(C(C)C)cc3n1)[C@H](CC(C)C)CCO2 [Compound I-5] | +++ (+++ is >60%) |  |
| Cc1cccc(C)c1-c1cc2nc(n1)NS(=O)(=O)c1cccc(c1)C(=O)N(Cc1cnc3oc(C(C)C)cc3n1)[C@H](C[C@@H]1CCCCO1)CO2 [Compound I-8] | +++ (+++ is >60%) |  |
| Cc1cccc(C)c1-c1cc2nc(n1)NS(=O)(=O)c1cccc(c1)C(=O)N(Cc1cnc3cc(C(C)C)n(C)c3n1)[C@H](C[C@@H]1CCCCO1)CO2 [Compound I-15, (11R)-6-(2,6-dimethylphenyl)-12-[(6-isopropyl-5-methyl-pyrrolo[2,3-b]pyrazin-3-yl)methyl]-2,2-dioxo-11-[[(2S)-tetrahydropyran-2-yl]methyl]-9-oxa-2λ^6-thia-3,5,12,19-tetrazatricyclo[12.3.1.14,8]nonadeca-1(18),4(19),5,7,14,16-hexaen-13-one] | +++ (+++ is >60%) |  |
| Cc1cccc(C)c1-c1cc2nc(n1)NS(=O)(=O)c1cccc(c1)C(=O)N(Cc1cnc3oc(C)c(C4CC4)c3n1)[C@H](CC(C)(C)C)CO2 [Compound I-28] | +++ (+++ is >60%) |  |
| Cc1cccc(C)c1-c1cc2nc(n1)NS(=O)(=O)c1cccc(c1)C(=O)N(Cc1cnc3cc(C(C)C)n(C)c3n1)[C@H](CC1CCOCC1)CO2 [Compound I-29] | ++ (++ is 30-60%) |  |
| Cc1cccc(C)c1-c1cc2nc(n1)NS(=O)(=O)c1cccc(c1)C(=O)N(Cc1cnc3oc(C(C)C)c(C)c3n1)[C@H](CC(C)(C)F)CO2 [Compound I-48] | +++ (+++ is >60%) |  |
| Cc1cccc(C)c1-c1cc2nc(n1)NS(=O)(=O)c1cccc(c1)C(=O)N(Cc1cnc3oc(C(C)C)cc3n1)[C@H](CC1(C)CCC1)CO2 [Compound I-55] | +++ (+++ is >60%) |  |
| Cc1cccc(C)c1-c1cc2nc(n1)NS(=O)(=O)c1cccc(c1)C(=O)N(Cc1cnc3oc(C(C)C)cc3n1)[C@H](CC(C)(C)C(F)(F)F)CO2 [Compound I-60] | +++ (+++ is >60%) |  |
| Cc1cccc(C)c1-c1cc2nc(n1)NS(=O)(=O)c1cccc(c1)C(=O)N(Cc1nc3c(cc1F)nc(C(C)C)n3C)[C@H](COC(C)C)CO2 [Compound I-68] | +++ (+++ is >60%) |  |
| Cc1cccc(C)c1-c1cc2nc(n1)NS(=O)(=O)c1cccc(c1)C(=O)N(Cc1cnc3nc(C(C)C)n(C)c3n1)[C@H](CC(C)(C)C)CO2 [Compound I-73] | +++ (+++ is >60%) |  |
